Laboratory results from patent US11235001B2, “RUNX inhibitor” (KYOTO UNIVERSITY, priority 2016, dated 2022).
pIC50: −log10 of the molar value.

What was measured:
SU-Ph2 cells = assay: Cell growth inhibition assay, SU-Ph2 cells; format: cell-based, human; conditions: SU-Ph2, 48 hours
Half-life in mouse = conditions: in vivo
[1] = system: BCL11A, TRIM24, p53, p21, BAX, PUMA and MDM2; assay: qRT-PCR of p53 suppressors and p53 target genes in MV4-11 cells; format: cell-based, human; conditions: 1 μM, 6 hours
Experimental: (§1) A total RNA was isolated with RNeasy mini kit (Qiagen) and reverse transcribed with Reverse script kit (TOYOBO) to generate cDNA. Real-time quantitative polymerase chain reaction (PCR) was carried out with 7500 Real-Time PCR System (Applied Biosystems) according to the manufacturer's instructions. Results were normalized to GAPDH levels. Relative expression levels were calculated using the 2-ΔΔCt method.

ROR1 and ROR2 = assay: qRT-PCR of ROR1 and ROR2 in DAOY; format: cell-based, human; conditions: 1 μM, 6 hours
Experimental: as §1
To medulloblastoma cell line DAOY, 1 μM Chb-M′ was administered. After 6 hours, the mRNA levels of cancer promoting factors ROR1 and ROR2, which are important for medulloblastoma, were evaluated by qRT-PCR (see the above-described “Real-time quantitative PCR (qRT-PCR)”). As a control, DMSO was administered. In the figure, the mRNA expression levels of ROR1 and ROR2 are shown as values relative to those in the DMSO-treated group. As evident from FIG. 48, the expressions of ROR family were suppressed by Chb-M′ at transcriptional levels.

PC-3 cells = conditions: read-out: IC50 (μM) in PC-3 cells; PC-3 (p53null/PTEN del/androgen-independent), 48 hours
[2] = system: HUVEC (human umbilical vein endothelial cell line); assay: Proliferation of HUVEC; format: cell-based
GATA2, E2F5, and AR = assay: qRT-PCR of prostatic adenocarcinoma-related factors in PC-3; format: cell-based, human; conditions: PC-3, 5 μM, 6 hours
Experimental: as §1
To prostatic adenocarcinoma cell line PC-3, 5 μM Chb-M′ was administered. After 6 hours, the mRNA levels of GATA2, E2F5, and AR (androgen receptors), which are important genes for proliferation of prostate cancer cells, were evaluated by qRT-PCR (see the above-described “Real-time quantitative PCR (qRT-PCR)”). As a control, DMSO was administered. In the figure, the mRNA expression levels of GATA2, E2F5, and AR are shown as values relative to those in the DMSO-treated group. As evident from FIG. 45, the expressions of GATA2, E2F5, and AR were suppressed by Chb-M′ at transcriptional levels.

Mig6 = assay: Western blotting of Mig6 in lung adenocarcinoma cells; format: cell-based, human; conditions: 1 μM, 24 hours
Experimental: Cells were washed twice with ice cold phosphate-buffered saline (PBS) and harvested in protein lysis buffer [50 mM Tris (pH 7.4), 100 mM NaCl, 0.1 mM EDTA, 1 mM phenylmethylsulfonyl fluoride, 1 mM β-glycerophosphate, 2.5 mM sodium pyrophosphate, 1 mM Na3VO4, lx protease inhibitor (Roche) and PhosSTOP (Roche)]. Whole cell extracts were separated by SDS-polyacrylamide gel electrophoresis (SDS-PAGE) and electrotransferred onto polyvinylidene difluoride membranes. […] Blots were detected using Chemi-Lumi One Super (nacalai tesque, Inc.) and ChemiDoc™ XRS+ Imager (Bio-Rad Laboratories, Inc.), as recommended by the manufacturers. Protein levels were quantified with Image Lab Software (Bio-Rad Laboratories, Inc.).
To LU99A cells and A549 cells, 1 μM Chb-M′ was administered. After 24 hours, the expression of Mig6 protein was evaluated by the Western blotting method (see the above-described “Immunoblotting”). […]

[3] = system: AML cell lines expressing functional p53 (MV4-11, OCI-AML2, OCI-AML3 and MOLM-13); assay: Growth inhibition assay of AML cell lines expressing functional p53; format: cell-based, human; conditions: 48 hours; at between nanomolar to low micromolar levels
Experimental: Growth inhibition of some AML cell lines expressing functional p53 (MV4-11, OCI-AML2, OCI-AML3 and MOLM-13) by PI polyamide conjugates at different concentrations was tested. Briefly, the cells were placed at a density of 1×10^5 cells/mL. Different concentrations of a PI polyamide conjugate (Chb-M′ or Chb-50) were added to media, and the cells were incubated for 48 hours (n=3). The number of viable cells when the PI polyamide conjugate was not added was used as a control (DMSO control). Cell viability was assessed by counting the viable cells with Cell Count Reagent SF (Nacalai tesque, Inc.) and Infinite (registered trademark) 200 PRO multimode reader (TECAN) according to the manufacturer's instructions.

SOS1 = assay: qRT-PCR of SOS1 in MKN45 gastric cancer cells; format: cell-based, human; conditions: MKN45, 1 μM, 6 hours
Experimental: as §1
To the MKN45 gastric cancer cell line, 1 μM of Chb-M′ was administered. After 6 hours, the mRNA level of SOS1 was evaluated by RT-PCR method using qRT-PCR (see the above-described “Real-time quantitative PCR (qRT-PCR)”). As a control, DMSO was administered. In the figure, the mRNA expression level of SOS1 is shown as a value relative to that in the DMSO-treated group.

p53 mutated cells = assay: Concomitant use with p53 inducer MIRA-1 in p53 mutated cells; format: cell-based, human; conditions: compared with the PRIMA-1 experiments (synergistic inhibition)
Experimental: We examined the effect of concomitant use of the conjugates and a p53 inducer. […] KG1a and HL60 cells are null for p53 (p53null cell lines). MV4-11NR, Kasumi-1 and THP-1 cells harbor mutated p53 (p53mut(+) cell lines).
Further, the same experiments were performed using a p53 inducer MIRA-1 and the same results were obtained. Although the PI polyamide conjugates of the present invention may greatly reduce their potency in p53 mutated cells (cancer cells harboring mutated p53 or no p53), concomitant use with a p53 inducer enables suppression of such p53 mutated cells.

CN(C)CCCNC(=O)c1cc(NC(=O)c2cc(NC(=O)c3cc(NC(=O)c4cc(NC(=O)CCCNC(=O)c5nc(NC(=O)c6nc(NC(=O)c7cc(NC(=O)c8nc(NC(=O)CCNC(=O)CCCc9ccc(N(CCCl)CCCl)cc9)cn8C)cn7C)cn6C)cn5C)cn4C)cn3C)cn2C)cn1C [Chb-M′]
IC50 compared with that of imatinib (SU-Ph2 cells): lower IC50 values
half-life (Half-life in mouse): ~5 h
Gene expressions of p53 suppressors BCL11A and TRIM24 [1]: down-regulated
mRNA expression level of p53 [1]: unchanged
mRNA expression levels of p21 and PUMA [1]: increased
Expressions of ROR family (ROR1 and ROR2 mRNA) (ROR1 and ROR2): suppressed
IC50 (PC-3 cells): 0.62 µM
pIC50 [2]: ≤ 4.30
Expressions of GATA2, E2F5, and AR (mRNA) (GATA2, E2F5, and AR): suppressed
Expression level of Mig6 protein (Mig6; A549 cells): enhanced
Expression level of Mig6 protein (Mig6; LU99A cells): enhanced
Growth inhibition of AML cells [3]: highly effective
Expression of SOS1 (mRNA) (SOS1): suppressed
Effect of concomitant use with p53 inducer MIRA-1 on cell proliferation (p53 mutated cells): same results
